The text below walks through data of publication PMC11898701, “Evaluating Therapeutic Efficacy of the Vascular Disrupting Agent OXi8007 Against Kidney Cancer in Mice” (Cancers, 2025).

One experiment deals with Renca cells. Put plainly: Microtubule disruption and cell morphology in Renca cells. The experiment is classed as cell-based, mouse. The note with it: 2.5 and 5 µM.
The test system of experiment [1] is orthotopic Renca-luc tumors. Put plainly: Acute response by dynamic bioluminescence imaging (BLI) and histology. Format: in vivo, mouse. The protocol: Anesthesia was induced with 1–3% isoflurane, and the mice were placed on the warmed imaging stage of an IVIS Spectrum® small animal imaging system (Xenogen/PerkinElmer Inc., Waltham, MA, USA) with continuous exposure to 1 to 2% isoflurane, as described previously. On successive occasions, mice were administered 75 µL of D-luciferin (sodium salt; Gold Biotechnology, St. Louis, MO, USA) SC in the fore back neck region as a 40 mg/mL solution in 0.9% saline. The BLI signal was quantified as the total flux using Living Image Software 4.3.7. Fresh luciferin was administered 4 and 24 h after drug administration to reveal acute changes in tumor perfusion.
Acute effects of OXi8007 were examined on Renca-luc tumor-bearing mice using BLI (n = 8) and MSOT (n = 6) by comparing images at the baseline [pre (0 h)] and following OXi8007 administration (IP) at 4 h and 24 h. Dynamic BLI images were acquired every minute over the course of 15–20 min immediately following luciferin injection. For MSOT, the same mice underwent a gas breathing challenge for 5 min in air (21% O2), 7 min in O2 (100% O2), followed by 3 min in air at 0 h, 4 h, and 24 h post-treatment.

Protocol for Renca cells: Renca cells were plated in cell culture-treated 96-well plates (Grenier Bio-One North America Inc., Monroe, NC, USA) at 2000 cells/well and allowed to adhere for 24 h before treatment. Hoechst 33342 (1 μg/mL) in complete RPMI 1640 medium was used to stain the cell nuclei for 15 min at 37 °C. […] The medium was removed to reduce background fluorescence, followed by two wash cycles with fresh medium. Fresh medium containing 25 μM of verapamil hydrochloride was added to the stained cells prior to imaging. Images of the microtubule cytoskeleton and nuclei were collected over 3 h using a Biotek Lionheart microscope ELx800 in fluorescence mode with a 20× objective.

Consider `COc1ccc2c(C(=O)c3cc(OC)c(OC)c(OC)c3)c(-c3ccc(OC)c(OP(=O)(O)O)c3)[nH]c2c1` [OXi8007], for which the “Effect on microtubule structure” value in the experiment on Renca cells is recorded as “rapid progressive loss of microtubule structure”. Besides, in experiment [1] (4 h after OXi8007 250 mg/kg IP, 8 mice), the “BLI signal relative to baseline” value was under 2 % baseline. Besides, the Histology of tumor result in experiment [1] (Renca-luc, within 4 h post-treatment) is reported as “extensive intratumoral hemorrhage”. Also, the “Vascular shutdown (BLI)” value in experiment [1] (within 4 h, orthotopic kidney tumors) was over 98%.
